Results from US9918939B2, “Formulation of Syk inhibitors” (Gilead Connecticut, Inc., priority 2013, dated 2018).
Structures can show the parent of a compound that is named as a salt.

Assay: Stability studies of dry granulation tablet (HPLC, XRPD)
Assay type: physicochemical
Details: intragranular blend, milled granules, final blend of Formulation 1 (FIG. 4)

form change by XRPD during processing: no form change
SMILES: c1cn2cc(-c3ccc4cn[nH]c4c3)nc(Nc3ccc(N4CCOCC4)cc3)c2n1 [bis-mesylate salt of Formula IA]
